{
  "source": "ChEMBL document CHEMBL5303711",
  "about": "“ECBD screening data for assay EOS300108” (2023)",
  "note": "Calls of active or inactive are those of the source. The rule behind the calls is not given here.",
  "data": [
    {"test": "Cytotoxicity activity against human HepG2 cells assessed by CellTiter-Glo luminescent cell viability assay.", "format": "toxicity, cell-based", "parameters": "assay stage confirmatory assay, source tissue liver", "conditions": "HepG2 cells, read-out: IC50 relative", "values": [
      {"molecule": "O=C(Nc1ccc(Cl)c(Cl)c1)Nc1ccc(Cl)c(Cl)c1", "CC50": "13.1 µM (active)"},
      {"molecule": "COc1cc2c(NC3CCN(C(C)C)CC3)nc(C3CCCCC3)nc2cc1OCCCN1CCCC1", "CC50": "2.4 µM (active)"},
      {"molecule": "NCCNS(=O)(=O)c1cccc2cnccc12", "CC50": "13.2 µM (inactive)"},
      {"molecule": "O=[N+]([O-])c1ccc(NN=Cc2sc(N3CCOCC3)nc2-c2ccccc2)c(S(=O)(=O)Nc2ccccc2Cl)c1", "CC50": "2.7 µM (active)"},
      {"molecule": "c1ccc(-c2cn3c(n2)CCc2ccc4cccnc4c2-3)cc1", "CC50": "4 µM (active)"},
      {"molecule": "O=S(=O)(NCCNC/C=C/c1ccc(Br)cc1)c1cccc2cnccc12", "CC50": "9.7 µM (active)"},
      {"molecule": "CN(C)S(=O)(=O)c1cccc(-n2sc3ccccc3c2=O)c1", "CC50": "9.3 µM (active)"},
      {"molecule": "Cc1ccccc1OCc1n(CC(=O)OC2CC(C)CCC2C(C)C)c2ccccc2[n+]1C", "note": "(stereo not given)", "CC50": "4.4 µM (active)"},
      {"molecule": "O=C(Oc1c(Cl)cc(Cl)c2cccnc12)c1ccco1", "CC50": "8 µM (active)"},
      {"molecule": "O=C(Nc1cccnn1)N1CCC(=Cc2cccc(Oc3ccc(C(F)(F)F)cn3)c2)CC1", "CC50": "7.5 µM (active)"},
      {"molecule": "Cc1ccc(C)c(-n2sc3cc(F)ccc3c2=O)c1", "CC50": "6.5 µM (active)"},
      {"molecule": "Cn1cc(/C=C2\\C(=O)Nc3cccnc32)c2ccccc21", "CC50": "8.1 µM (inactive)"},
      {"molecule": "Cc1cc(Nc2nc(N[C@@H](C)c3ccc(F)cc3)c(C#N)cc2F)n[nH]1", "CC50": "2.7 µM (active)"},
      {"molecule": "NC(=O)c1ccc2[nH]c(-c3ccc(Oc4ccc(Cl)cc4)cc3)nc2c1", "CC50": "14.7 µM (inactive)"},
      {"molecule": "COc1cc(/C=C(\\C#N)C(=O)Nc2nnc(C(F)(F)F)s2)ccc1OCc1ccc(C(F)(F)F)cc1C(F)(F)F", "CC50": "12 µM (active)"},
      {"molecule": "CCN(c1nc(N)c(C(=O)NC(=N)N)nc1Cl)C(C)C", "CC50": "12.5 µM (active)"},
      {"molecule": "Cc1sc2c(c1C)C(c1ccc(Cl)cc1)=N[C@@H](CC(=O)OC(C)(C)C)c1nnc(C)n1-2", "CC50": "1.2 µM (active)"},
      {"molecule": "CCCCCCCC(=O)N[C@H](CN1CCCC1)[C@H](O)c1ccc2c(c1)OCCO2", "CC50": "15.7 µM (inactive)"},
      {"molecule": "Cc1c(C(=O)Nc2cccc(C(F)(F)F)c2)cc(-c2ccccc2)n1CCCN1CCOCC1", "CC50": "13.9 µM (inactive)"},
      {"molecule": "CCc1cncnc1N1CCN(Cc2nc3cc(C(F)(F)F)ccc3[nH]2)CC1", "CC50": "9.5 µM (active)"},
      {"molecule": "COc1ccccc1S(=O)(=O)Nc1ccc2c(c1)CN(C)C(=O)N2", "CC50": "3.7 µM (active)"},
      {"molecule": "CCCc1cc(C)[nH]c(=O)c1CNC(=O)c1cc(-c2ccnc(N3CCN(C)CC3)c2)cc2c1cnn2C(C)C", "CC50": "6 µM (active)"},
      {"molecule": "CC(C)(C)c1ccccc1Oc1ncccc1NC(=O)Nc1ccc(OC(F)(F)F)cc1", "CC50": "7.9 µM (active)"},
      {"molecule": "Cc1cc(Nc2ccc(NC(=O)c3ccc(Nc4ccnc5ccccc45)cc3)cc2)nc(N)n1", "CC50": "0.4 µM (active)"},
      {"molecule": "COc1cc2c(NC3CCN(C(C)C)CC3)nc(N3CCC(F)(F)CC3)nc2cc1OCCCN1CCCC1", "CC50": "3.1 µM (active)"},
      {"molecule": "NCC1CCC(CNc2nc(NCc3ccccc3OC(F)(F)F)ncc2[N+](=O)[O-])CC1", "note": "(stereo not given)", "CC50": "9.7 µM (active)"},
      {"molecule": "CCNC(=O)c1noc(-c2cc(Cl)c(O)cc2O)c1-c1ccc(OC)cc1", "CC50": "0.1 µM (active)"},
      {"molecule": "Cc1nnsc1C(=O)Nc1ccc(-n2nc(C(F)(F)F)cc2C(F)(F)F)cc1", "CC50": "9.9 µM (active)"},
      {"molecule": "Nc1ncnc2c1ncn2[C@@H]1CC[C@@H](O)[C@H]1O", "CC50": "1.6 µM (active)"},
      {"molecule": "CCCCOc1c(C(=O)c2c(F)cc(C)cc2F)c[nH]c2nncc1-2", "CC50": "50 µM (inactive)"},
      {"molecule": "CCOC(=O)CCNc1cc(N2CCc3ccccc3CC2)nc(-c2ccccn2)n1", "CC50": "7.5 µM (active)"},
      {"molecule": "C=CCN(C)CCCCCCOc1ccc(C(=O)c2ccc(Br)cc2)c(F)c1", "CC50": "2.8 µM (active)"},
      {"molecule": "N#Cc1ccc(NC(=O)NCc2cnc3scc(-c4ccc(Br)cc4)n23)cc1", "CC50": "35 µM (active)"},
      {"molecule": "CCCc1cc(C)[nH]c(=O)c1CNC(=O)c1cc(-c2ccc(N3CCN(C(C)C)CC3)nc2)cc2c1cnn2C(C)C", "CC50": "2.6 µM (active)"},
      {"molecule": "Cc1cn(CCN2CCN(c3ccccc3-c3cc(C#N)cc(C(=O)NCCCN4CCCC4)c3)CC2)c2ccccc12", "CC50": "1.4 µM (active)"},
      {"molecule": "CN(C)c1nc2c(Br)c(Br)c(Br)c(Br)c2[nH]1", "CC50": "50 µM (inactive)"},
      {"molecule": "Oc1cc2c(cc1C(c1ccc(C(F)(F)F)cc1)N1CCOCC1)OCO2", "note": "(stereo not given)", "CC50": "26 µM (inactive)"},
      {"molecule": "CC(C)Oc1ccc(-c2c[nH]cc2CN(C)CCN)cc1", "CC50": "23.3 µM (inactive)"},
      {"molecule": "O=C(NCCN1CCC(n2c(=O)[nH]c3ccccc32)CC1)c1cc2cc(F)ccc2[nH]1", "CC50": "6.4 µM (active)"},
      {"molecule": "NC(=O)Nc1sc(-c2ccccc2)cc1C(N)=O", "CC50": "7.9 µM (active)"},
      {"molecule": "Nc1ccc2c(c1)C(=O)C(=O)c1ccccc1-2", "CC50": "4.2 µM (active)"},
      {"molecule": "Cc1sc2c(c1C)C(c1ccc(Cl)cc1)=N[C@@H](CC(N)=O)c1nnc(C)n1-2", "CC50": "0.3 µM (active)"},
      {"molecule": "CCC(=O)Nc1cccc(Oc2nc(Nc3ccc(N4CCN(C)CC4)cc3OC)ncc2Cl)c1", "CC50": "2.8 µM (active)"},
      {"molecule": "O=C(Nc1nc2ccc(NC(=O)C34CC5CC(CC(C5)C3)C4)cc2s1)c1ccccc1", "CC50": "15 µM (inactive)"},
      {"molecule": "CCN1/C(=C/C(C)=C/c2sc3ccccc3[n+]2CC)Sc2ccccc21", "CC50": "0.4 µM (active)"},
      {"molecule": "COc1ccc2c(O[C@@H]3C[C@H]4C(=O)N[C@]5(C(=O)NS(=O)(=O)C6CC6)C[C@H]5/C=C\\CCCCN(C)C(=O)[C@@H]4C3)cc(-c3nc(C(C)C)cs3)nc2c1C", "CC50": "8.6 µM (active)"},
      {"molecule": "CCN1CCN(C(=O)Cc2ccc(Nc3ncc(F)c(Nc4ccc(C(=O)Nc5ccccc5Cl)cc4)n3)cc2)CC1", "CC50": "1.8 µM (active)"},
      {"molecule": "COc1cc(C(=O)N2CC[C@@H](O)[C@@H](N)C2)cc2nc(-c3cc4ccccc4n3CC3CC3)n(C)c12", "CC50": "6.1 µM (active)"},
      {"molecule": "OCCn1cc(-c2ccc3c(c2)CC/C3=N\\O)c(-c2ccncc2)n1", "CC50": "1.1 µM (active)"},
      {"molecule": "O=C(N[C@H]1CN2CCC1CC2)c1cc2cccc(Cl)c2s1", "CC50": "5.9 µM (active)"},
      {"molecule": "COc1c(Nc2ncc(Cl)c(N[C@H]3[C@@H](C(N)=O)[C@@H]4C=C[C@H]3C4)n2)ccc2c1CC[C@@H](N1CCOCC1)CC2", "CC50": "2 µM (active)"},
      {"molecule": "Cc1cc(O)c(-c2ccc([C@@H](C)CN(C)C)cc2)c2c1[nH]c(=O)c1sccc12", "CC50": "0.1 µM (active)"},
      {"molecule": "COc1ccc(OC2CCN(CCC(=O)Nc3cccc(F)c3)CC2)cc1", "CC50": "14.8 µM (inactive)"},
      {"molecule": "O=C1COc2c(CCNCCN(C(=O)CCNCCc3ccc(Cl)c(Cl)c3)C3CCCCC3)ccc(O)c2N1", "CC50": "10.5 µM (active)"},
      {"molecule": "NC(=O)c1cnc2[nH]ccc2c1N[C@@H]1[C@@H]2C[C@@H]3C[C@H]1C[C@@](O)(C3)C2", "CC50": "8 µM (active)"},
      {"molecule": "CC1(C)CN2C(CS/C(=N\\C3CCCCC3)NC3CCCCC3)=CSC2=N1", "CC50": "6 µM (active)"},
      {"molecule": "CC1(C)N=C(N)N=C(N)N1c1ccc(Br)cc1", "CC50": "9.1 µM (inactive)"},
      {"molecule": "Oc1ccc2c(c1)CC[C@H](c1ccccc1)[C@@H]2c1ccc(OCCN2CCCC2)cc1", "CC50": "2.9 µM (active)"},
      {"molecule": "Nc1nc(NC[C@H]2CC[C@H](CNS(=O)(=O)c3cccc4ccccc34)CC2)nc2ccccc12", "CC50": "2 µM (active)"},
      {"molecule": "CN1C/C=C\\CCOc2cccc(c2)-c2ccnc(n2)Nc2cccc(c2)C1", "CC50": "< 0.1 µM (active)"},
      {"molecule": "Fc1ccc(C(OCCN2CCN(CCCc3ccccc3)CC2)c2ccc(F)cc2)cc1", "CC50": "5.7 µM (active)"},
      {"molecule": "COc1cccc(C(=O)Nc2ncc(Cc3cccc(C(F)(F)F)c3)s2)c1", "CC50": "8 µM (active)"},
      {"molecule": "CC(=O)NC(c1ccccc1)c1cc(Cl)c2cccnc2c1O", "note": "(stereo not given)", "CC50": "1.4 µM (active)"},
      {"molecule": "O=C1c2ccccc2-c2n[nH]c3cccc1c23", "CC50": "6.2 µM (active)"},
      {"molecule": "CC1(C)N=C(N)N=C(N)N1c1cccc(Cl)c1", "CC50": "0.9 µM (active)"}
    ]}
  ]
}
